Test results published in US20260091020A1, “TREATMENT OF ACUTE CANNABINOID OVERDOSE” (Anebulo Pharmaceuticals, Inc., priority 2022, published 2026).
Entries after “also recorded” stand apart in the source; their conditions may differ.

Assay: Safety/tolerability in the phase 2 THC challenge study (50 and 100 mg Compound 1)
Conditions: for QTcF, mean increase from baseline: 3 hours post dose, 3.1 ms in placebo group
[1] = 50 mg Compound 1 group (20 per arm)
[2] = 100 mg Compound 1 group (20 per arm)

## CC(C)(C)NC(=O)N1CC(O[C@H](c2ccc(Cl)cc2)c2ccccc2C(F)(F)F)C1 [Compound 1, (R)—N-(tert-butyl)-3-((4-chlorophenyl)(2-(trifluoromethyl)phenyl)methoxy)azetidine-1-carboxamide]
10.5 mg THC + 50 or 100 mg Compound 1 vs THC/placebo
  VAS nausea: No significant difference overall between treatment groups
[1]
  Depressed mood, number of subjects: 1 subject
  Feeling hot, number of subjects: 6 subjects
  Hyperhidrosis, number of subjects: 6 subjects
  Nausea, number of subjects: 13 subjects
  Vomiting, number of subjects: 1 subject
50 mg Compound 1 group
  QTcF, mean increase from baseline: 7.9 ms
50 mg and 100 mg Compound 1 group, placebo group up to ~6 bpm
  Heart rate, mean increase following dosing (up to): 3-4 bpm
[2]
  Depressed mood, number of subjects: 2 subjects
  Feeling hot, number of subjects: 4 subjects
  Hyperhidrosis, number of subjects: 7 subjects
  Nausea, number of subjects: 8 subjects
  Vomiting, number of subjects: 6 subjects
100 mg Compound 1 group
  QTcF, mean increase from baseline: 9.9 ms
50 and 100 mg Compound 1 groups, 24 h post dose, 1.4 mol/L in placebo group
  Increase in total bilirubin compared to baseline: 5
50 and 100 mg Compound 1 with 10.5 mg THC
  Severity of adverse events: mild and transient except in the case of one subject in the 50 mg Compound 1 group who experienced moderate nausea and vomiting; also recorded: transient and of mild severity, except one case of vomiting of moderate severity in the 50 mg Compound 1 treatment group
One subject, 100 mg Compound 1 group
  AESI: systolic blood pressure increase compared to baseline: > 30 mmHg
Single doses of 50 and 100 mg Compound 1
  Overall safety and tolerability: safe and well tolerated by most subjects
